These results are taken from PubChem BioAssay AID248 (DTP/NCI, 2004).

The structures appear in SMILES notation. Inconclusive results and toxic doses are left out.

In this test the test system is L1210 leukemia ip in BDF1 mice, survival T/C. As to the kind of experiment: NCI In Vivo Anticancer Drug Screen. Data for tumor model L1210 Leukemia (intraperitoneal) in B6D2F1 (BDF1) mice. The following applies: endpoint: mean survival time, higher = longer survival. The gist of the method:
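Tumor cells were implanted, animals were treated, and survival was followed. The result divides the treated measurement by the vehicle-control measurement.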

For `CN(C)C(N)=Nc1ccc(Cl)cc1`, the T/C is 97 % of control (dose: 12.5 mg/kg/injection, schedule: Q01DX009 (ip), vehicle: Klucel (hydroxypropylcellulose) (HPC)); 98 % of control (dose: 25.0 mg/kg/injection, schedule: Q01DX009 (ip), vehicle: Klucel (hydroxypropylcellulose) (HPC)); 89 % of control (dose: 50.0 mg/kg/injection, schedule: Q01DX009 (ip), vehicle: Klucel (hydroxypropylcellulose) (HPC)).
With `CN(C)CCC(=O)O`, the T/C reads like this: (dose: 100.0 mg/kg/injection, schedule: Q01DX009 (ip), vehicle: saline) 92 % of control; (dose: 100.0 mg/kg/injection, schedule: Q04DX003 (ip), vehicle: saline sonified) 108 % of control; (dose: 200.0 mg/kg/injection, schedule: Q01DX009 (ip), vehicle: saline) 97 % of control; (dose: 200.0 mg/kg/injection, schedule: Q04DX003 (ip), vehicle: saline sonified) 105 % of control; (dose: 400.0 mg/kg/injection, schedule: Q01DX009 (ip), vehicle: saline) 94 % of control; (dose: 400.0 mg/kg/injection, schedule: Q04DX003 (ip), vehicle: saline sonified) 95 % of control.
Take `N=c1c2c(C(N)=O)cn(C3OC(CO)C(O)C3O)c2ncn1O` (centres undefined): the T/C runs as follows: (dose: 2.5 mg/kg/injection, schedule: Q01DX001 (ip), vehicle: saline with Tween-80) 122 % of control; (dose: 5.0 mg/kg/injection, schedule: Q01DX001 (ip), vehicle: saline with Tween-80) 117 % of control; (dose: 10.0 mg/kg/injection, schedule: Q01DX001 (ip), vehicle: saline with Tween-80) 123 % of control; (dose: 10.0 mg/kg/injection, schedule: Q01DX001 (ip), vehicle: saline) 153 % of control; (dose: 20.0 mg/kg/injection, schedule: Q01DX001 (ip), vehicle: saline) 180 % of control.
Regarding `CCc1ccccc1NC(=O)c1ccccc1Cl`, the T/C runs as follows: (dose: 100.0 mg/kg/injection, schedule: Q01DX009 (ip), vehicle: other) 97 % of control; (dose: 100.0 mg/kg/injection, schedule: Q04DX003 (ip), vehicle: saline with Tween-80) 102 % of control; (dose: 200.0 mg/kg/injection, schedule: Q01DX009 (ip), vehicle: other) 95 % of control; (dose: 200.0 mg/kg/injection, schedule: Q04DX003 (ip), vehicle: saline with Tween-80) 101 % of control; (dose: 400.0 mg/kg/injection, schedule: Q01DX009 (ip), vehicle: other) 89 % of control; (dose: 400.0 mg/kg/injection, schedule: Q04DX003 (ip), vehicle: saline with Tween-80) 93 % of control.
Turning to `Cc1n[nH]c(=S)nc1C`, the T/C (dose: 50.0 mg/kg/injection, schedule: Q01DX001 (ip), vehicle: saline) was 96 % of control; the T/C (dose: 50.0 mg/kg/injection, schedule: Q04DX003 (ip), vehicle: Klucel (hydroxypropylcellulose) (HPC)) was 96 % of control; the T/C (dose: 100.0 mg/kg/injection, schedule: Q01DX001 (ip), vehicle: saline) was 102 % of control; the T/C (dose: 100.0 mg/kg/injection, schedule: Q04DX003 (ip), vehicle: Klucel (hydroxypropylcellulose) (HPC)) was 96 % of control; the T/C (dose: 200.0 mg/kg/injection, schedule: Q01DX001 (ip), vehicle: saline) is 93 % of control; the T/C (dose: 200.0 mg/kg/injection, schedule: Q04DX003 (ip), vehicle: Klucel (hydroxypropylcellulose) (HPC)) was 91 % of control.
For `O=S(=O)(F)c1c(Cl)cccc1CBr`, the T/C runs as follows: (dose: 25.0 mg/kg/injection, schedule: Q01DX009 (ip), vehicle: saline with Tween-80) 100 % of control; (dose: 50.0 mg/kg/injection, schedule: Q01DX009 (ip), vehicle: saline with Tween-80) 96 % of control; (dose: 100.0 mg/kg/injection, schedule: Q01DX009 (ip), vehicle: saline with Tween-80) 86 % of control.
